In PMC10098121, “Amphipathic barbiturates as marine product mimics with cytolytic and immunogenic effects on head and neck squamous cell carcinoma cell lines” (Frontiers in Pharmacology, 2023):

Columns and labels:
Assay type in all cases: cell-based, human
HSC-3 cells [1] = test: MTS viability assay with bafilomycin A1 and z-VAD-FMK; conditions: HSC-3, 24 h; cisplatin 50 µM, MPM-2:0/MPM-6:0 5 µM, MPM-3:2/MPM-4:2 10 µM
Description: HSC-3 and UT-SCC-24A cells were seeded, 10,000 cells/well, in flat bottom 96-well plates and left to adhere overnight. The supernatants were then removed and replaced by 50 µl of complete DMEM/F-12 ± 100 nM BafA1 (#196000, Sigma-Aldrich, St. Louis, MO, United States) or 50 µM z-VAD-FMK (#219007, Sigma-Aldrich). The plate was then incubated for 1 hour before another 50 µl of complete DMEM/F-12 ± 100 nM BafA1 or 50 µM z-VAD-FMK as well as the MPMs or cisplatin was added. The final concentration of cisplatin was 50 µM and for the MPMs it was 5 or 10 µM for MPM-2:0 and MPM-6:0, and 10 or 20 µM for MPM-3:2 and MPM-4:2, for HSC-3 and UT-SCC-24A cells, respectively. 100 μl of media ± 1% Triton X-100 served as […]. The cells were incubated for 24 h before 20 µl of MTS reagent (CellTiter 96® Aqueous One Solution, Promega, Madison, WI, United States) was added to each well. The plate was then incubated for one more hour before absorbance was measured at 490 nm on a VersaMaxTM Microplate reader (Molecular Devices, San Jose, CA, United States). Viability was calculated using the following formula: %=Abs treated sample−Abs positive control/Abs negative control−Abs positive control x 100
At least three independent experiments were performed, with triplicate wells in each experiment.

HSC-3 cells [2] = test: Scratch wound migration assay; conditions: for wound closure in migration assay (in words): HSC-3, 10 µM, 24 h; for wound closing at the lower concentrations (in words): HSC-3, 0.1 or 1 µM, text does not separate migration and invasion
Description: (§1) Two Incucyte image lock 96-well plates (#4379, Sartorius) were coated with 50 µl myogel (0.5 mg/ml) per well. The next day, the media remaining in the wells was removed before HSC-3 cells were seeded at a density of 25,000 cells/well in 100 µl. The cells were left to adhere, and the following day, a scratch was made in the middle of each well using the Incucyte 96-pin WoundMaker tool (Sartorius). The wells were then washed once with media. For the migration assay, the media in each well was then replaced with 100 µl of media containing 0.1, 1 or 10 µM of MPM-2:0 or MPM-4:2. For the invasion assay, the media was replaced by 50 µl of a gel consisting of serum-free media, myogel (2.4 mg/ml), type I rat tail collagen (0.8 mg/ml, Corning, NY, USA) and 0.1, 1 or 10 µM of MPM-2:0 or MPM-4:2. The plate was incubated at 37°C for 1 h to let the gel solidify. Next, 100 µl of media, also containing 0.1, 1 or 10 µM of MPM-2:0 or MPM-4:2 was added on top of the gel. Both the migration and invasion plates were placed in the Incucyte S3 (Sartorius) and imaged at ×10 magnification every 2 hours for 24 h in total. The Incucyte software was used to analyze the relative wound density.

UT-SCC-24A cells = test: Western blot for extracellular HMGB1; conditions: 24 h, supernatant
Description: Detection of HMGB1 in the supernatant of MPM treated HSC-3 and UT-SCC-24A cells was performed as previously described ([von Hofsten et al., 2022]). Briefly, HSC-3 and UT-SCC-24A cells were seeded, 100,000 cells/well in 12-well plates and left to adhere overnight. The following day, the media was removed and replaced with media containing either 50 µM cisplatin, 5 or 10 µM MPM-2:0 or MPM-6:0, or 10 or 20 µM MPM-3:2 or MPM-4:2. The cells were incubated for 24 h before supernatants were collected and centrifuged to remove debris. Supernatant samples were mixed with DTT (final concentration 50 mM) and sample buffer before being boiled for 5 min and loaded on a NuPAGE® 10% Bis–Tris Gel (Thermo Fisher Scientific) before being electro-transferred to a polyvindiline dilfluoride (PVDF) immobilon-P membrane (Merck, Rahway, NJ, United States). The membrane was blocked for 1 h with 5% non-fat dry milk in TBST and then incubated overnight at 4°C with the primary antibody targeting HMGB1 (#ab18256, Abcam) diluted 1:1,000 in TBST 5% non-fat dry milk. Next, the membrane was washed three times in TBST and incubated with an HRP-conjugated goat anti-rabbit secondary antibody (#4050-05, Southern Biotech, Birmingham, AL, United States) diluted 1:2000 in TBST 5% non-fat dry milk at room temperature for 1 h. […]

HSC-3 cells [3] = test: Scratch wound invasion assay (myogel-collagen); conditions: HSC-3, 10 µM, 24 h; control cells approximately 24 h
Description: as §1

Row | SMILES | viability in the presence of BafA1 (100 nM) or z-VAD-FMK (50 µM) (in words) (HSC-3 cells [1]) | wound closure in migration assay (in words) (HSC-3 cells [2]) | wound closing at the lower concentrations (in words) (HSC-3 cells [2]) | release of HMGB1 (in words) (UT-SCC-24A cells) | wound closure in invasion assay (in words) (HSC-3 cells [3])
1 | N.N.[Cl][Pt][Cl] [Cisplatin, cisplatin, reference compound] | z-VAD-FMK seemed to have some protective effects against cisplatin for both cell lines, while BafA1 had the opposite effect |  |  |  | 
2 | NCCN1C(=O)N(CCN)C(=O)C(CCCc2ccccc2)(CCCc2ccccc2)C1=O [MPM-2:0] |  | induced cell death so quickly that it was not possible to study the effect on migration or invasion | trend towards faster wound closing | statistically significant | induced cell death so quickly that it was not possible to study the effect on migration or invasion
3 | CN(C)CCCCN1C(=O)N(CCCCN(C)C)C(=O)C(CCCc2ccccc2)(CCCc2ccccc2)C1=O [MPM-4:2] |  | required more time to close the wound | trend towards faster wound closing |  | never managed to close the wound
4 | NCCCCCCN1C(=O)N(CCCCCCN)C(=O)C(CCCc2ccccc2)(CCCc2ccccc2)C1=O [MPM-6:0] | z-VAD-FMK increase viability more than BafA1 |  |  | statistically significant | 
